# Tests used:
# Assay in all cases: kinome scan
# Settings in all cases: 10 µM
# GSK3A = molecular target: T1, GSK3A (Homo sapiens, UniProt P49840); type: binding
# T1 construct: purchased DiscoverX (KINOMEscan)
# RIPK1 = molecular target: T2, RIPK1 (Homo sapiens, UniProt Q13546); type: binding
# T2 construct: purchased DiscoverX (KINOMEscan)
# CDKL2 = molecular target: T3, CDKL2 (Homo sapiens, UniProt Q92772); type: binding
# T3 construct: purchased DiscoverX (KINOMEscan)
# MELK = molecular target: T4, MELK (Homo sapiens, UniProt Q14680); type: binding
# T4 construct: purchased DiscoverX (KINOMEscan)
# [1] = molecular target: T5, RPS6KA4(Kin.Dom.2-C-terminal) (Homo sapiens, UniProt O75676); type: binding
# T5 construct: RPS6KA4(Kin.Dom.2-C-terminal); purchased DiscoverX (KINOMEscan)
# CAMKK1 = molecular target: T6, CAMKK1 (Homo sapiens, UniProt Q8N5S9); type: binding
# T6 construct: purchased DiscoverX (KINOMEscan)
# YES = molecular target: T7, YES (Homo sapiens, UniProt P07947); type: binding
# T7 construct: purchased DiscoverX (KINOMEscan)
# FLT4 = molecular target: T8, FLT4 (Homo sapiens, UniProt P35916); type: binding
# T8 construct: purchased DiscoverX (KINOMEscan)
# T8 sequence (P35916 25-1363): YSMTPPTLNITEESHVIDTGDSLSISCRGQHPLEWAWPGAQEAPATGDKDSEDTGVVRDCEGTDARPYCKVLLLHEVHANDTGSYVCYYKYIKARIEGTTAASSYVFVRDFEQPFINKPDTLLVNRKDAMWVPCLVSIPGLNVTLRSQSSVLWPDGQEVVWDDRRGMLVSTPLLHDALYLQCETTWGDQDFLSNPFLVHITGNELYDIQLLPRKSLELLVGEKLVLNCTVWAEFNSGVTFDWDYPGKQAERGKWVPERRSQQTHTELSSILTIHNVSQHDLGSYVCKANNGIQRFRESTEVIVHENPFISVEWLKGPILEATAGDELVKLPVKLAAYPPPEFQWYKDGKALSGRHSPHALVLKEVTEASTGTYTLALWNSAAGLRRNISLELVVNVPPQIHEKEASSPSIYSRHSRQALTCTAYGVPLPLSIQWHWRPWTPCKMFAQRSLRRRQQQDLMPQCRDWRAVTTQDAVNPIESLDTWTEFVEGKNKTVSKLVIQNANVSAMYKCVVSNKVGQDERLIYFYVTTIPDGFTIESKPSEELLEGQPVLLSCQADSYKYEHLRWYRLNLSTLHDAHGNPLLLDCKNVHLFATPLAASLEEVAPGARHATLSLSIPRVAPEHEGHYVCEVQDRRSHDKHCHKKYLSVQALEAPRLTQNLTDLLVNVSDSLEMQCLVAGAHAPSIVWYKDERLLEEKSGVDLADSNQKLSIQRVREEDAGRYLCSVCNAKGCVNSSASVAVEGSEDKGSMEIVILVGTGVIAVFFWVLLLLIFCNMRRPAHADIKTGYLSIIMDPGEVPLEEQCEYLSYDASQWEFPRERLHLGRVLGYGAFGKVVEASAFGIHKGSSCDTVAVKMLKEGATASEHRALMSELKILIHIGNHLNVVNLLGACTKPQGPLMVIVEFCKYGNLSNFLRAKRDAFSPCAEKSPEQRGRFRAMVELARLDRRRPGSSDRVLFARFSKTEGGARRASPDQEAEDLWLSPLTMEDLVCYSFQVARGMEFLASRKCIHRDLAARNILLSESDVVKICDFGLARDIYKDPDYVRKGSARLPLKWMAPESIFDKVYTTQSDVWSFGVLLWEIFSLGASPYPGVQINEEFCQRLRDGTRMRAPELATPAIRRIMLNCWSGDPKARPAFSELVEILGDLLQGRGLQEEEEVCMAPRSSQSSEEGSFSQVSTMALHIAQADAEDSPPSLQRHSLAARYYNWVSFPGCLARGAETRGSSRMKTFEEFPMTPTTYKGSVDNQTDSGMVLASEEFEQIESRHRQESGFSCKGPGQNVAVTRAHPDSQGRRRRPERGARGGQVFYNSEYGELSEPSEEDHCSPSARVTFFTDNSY
# PIK3CA(I800L) = molecular target: T9, PIK3CA(I800L) (Homo sapiens, UniProt P42336, I800L); type: binding
# T9 construct: purchased DiscoverX (KINOMEscan)
# T9 sequence (P42336 whole entry I800L): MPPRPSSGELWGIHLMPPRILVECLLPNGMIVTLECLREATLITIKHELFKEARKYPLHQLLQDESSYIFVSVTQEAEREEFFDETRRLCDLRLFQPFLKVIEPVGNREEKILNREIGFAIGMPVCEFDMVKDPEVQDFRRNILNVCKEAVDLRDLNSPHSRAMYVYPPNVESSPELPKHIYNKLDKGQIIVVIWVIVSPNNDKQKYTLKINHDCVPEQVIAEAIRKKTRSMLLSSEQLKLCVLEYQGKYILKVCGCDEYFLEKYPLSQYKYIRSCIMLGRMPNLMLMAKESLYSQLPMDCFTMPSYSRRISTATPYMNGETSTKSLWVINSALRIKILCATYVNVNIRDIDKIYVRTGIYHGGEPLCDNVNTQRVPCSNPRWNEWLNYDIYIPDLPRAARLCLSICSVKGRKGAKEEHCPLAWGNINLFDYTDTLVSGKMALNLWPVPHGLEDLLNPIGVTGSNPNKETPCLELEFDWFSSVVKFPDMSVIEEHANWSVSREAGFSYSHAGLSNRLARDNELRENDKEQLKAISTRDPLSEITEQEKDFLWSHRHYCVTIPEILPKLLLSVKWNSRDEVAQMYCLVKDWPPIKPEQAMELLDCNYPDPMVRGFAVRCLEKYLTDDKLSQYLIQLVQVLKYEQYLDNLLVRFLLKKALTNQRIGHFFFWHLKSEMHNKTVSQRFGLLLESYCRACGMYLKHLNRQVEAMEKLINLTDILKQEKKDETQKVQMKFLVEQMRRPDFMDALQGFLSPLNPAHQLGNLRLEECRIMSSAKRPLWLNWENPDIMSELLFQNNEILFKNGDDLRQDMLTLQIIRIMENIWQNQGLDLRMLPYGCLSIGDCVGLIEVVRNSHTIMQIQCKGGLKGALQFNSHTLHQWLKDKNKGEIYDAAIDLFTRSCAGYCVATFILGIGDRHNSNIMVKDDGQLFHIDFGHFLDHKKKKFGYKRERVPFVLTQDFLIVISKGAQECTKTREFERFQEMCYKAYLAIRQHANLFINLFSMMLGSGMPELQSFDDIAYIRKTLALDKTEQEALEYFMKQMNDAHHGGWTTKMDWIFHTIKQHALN
# EGFR(L858R) = molecular target: T10, EGFR(L858R) (Homo sapiens, UniProt P00533, L858R); type: binding
# T10 construct: purchased DiscoverX (KINOMEscan)
# T10 sequence (P00533 25-1210 L858R): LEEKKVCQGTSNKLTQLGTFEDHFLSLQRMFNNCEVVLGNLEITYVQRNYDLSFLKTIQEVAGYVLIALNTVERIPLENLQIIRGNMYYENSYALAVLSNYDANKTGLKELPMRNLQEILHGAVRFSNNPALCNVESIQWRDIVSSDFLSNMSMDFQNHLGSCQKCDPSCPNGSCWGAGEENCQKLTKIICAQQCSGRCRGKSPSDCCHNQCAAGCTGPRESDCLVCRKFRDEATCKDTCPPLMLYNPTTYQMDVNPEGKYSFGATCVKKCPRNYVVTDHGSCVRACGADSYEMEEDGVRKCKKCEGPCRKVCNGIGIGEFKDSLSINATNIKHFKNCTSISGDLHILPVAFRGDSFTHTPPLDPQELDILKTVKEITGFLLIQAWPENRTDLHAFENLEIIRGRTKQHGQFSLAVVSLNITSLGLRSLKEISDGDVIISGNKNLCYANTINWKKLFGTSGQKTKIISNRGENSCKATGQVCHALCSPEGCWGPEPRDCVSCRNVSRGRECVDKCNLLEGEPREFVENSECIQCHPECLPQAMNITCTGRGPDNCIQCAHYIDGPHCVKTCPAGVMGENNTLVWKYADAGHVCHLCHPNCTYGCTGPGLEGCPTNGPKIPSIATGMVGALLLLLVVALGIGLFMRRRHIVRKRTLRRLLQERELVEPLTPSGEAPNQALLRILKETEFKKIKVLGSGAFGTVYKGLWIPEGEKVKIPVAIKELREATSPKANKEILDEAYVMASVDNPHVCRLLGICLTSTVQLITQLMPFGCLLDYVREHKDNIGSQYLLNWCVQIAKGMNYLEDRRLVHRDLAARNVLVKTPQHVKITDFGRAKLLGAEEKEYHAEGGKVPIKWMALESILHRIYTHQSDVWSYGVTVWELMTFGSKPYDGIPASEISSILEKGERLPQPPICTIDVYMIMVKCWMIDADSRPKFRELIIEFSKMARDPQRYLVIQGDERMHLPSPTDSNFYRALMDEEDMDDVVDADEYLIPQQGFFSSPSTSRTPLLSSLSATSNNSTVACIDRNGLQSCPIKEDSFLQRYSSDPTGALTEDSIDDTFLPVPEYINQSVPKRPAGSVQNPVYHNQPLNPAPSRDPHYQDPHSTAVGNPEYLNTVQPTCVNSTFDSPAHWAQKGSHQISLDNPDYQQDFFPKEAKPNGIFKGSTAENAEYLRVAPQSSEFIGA
# [2] = molecular target: T11, ABL1(F317L)-phosphorylated (Homo sapiens, UniProt P00519, F317L); type: binding
# T11 construct: purchased DiscoverX (KINOMEscan)
# LRRK2(G2019S) = molecular target: T12, LRRK2(G2019S) (Homo sapiens, UniProt Q5S007, G2019S); type: binding
# T12 construct: purchased DiscoverX (KINOMEscan)
# BIKE = molecular target: T13, BIKE (Homo sapiens, UniProt Q9NSY1); type: binding
# T13 construct: purchased DiscoverX (KINOMEscan)
# TGFBR2 = molecular target: T14, TGFBR2 (Homo sapiens, UniProt P37173); type: binding
# T14 construct: purchased DiscoverX (KINOMEscan)
# MET(Y1235D) = molecular target: T15, MET(Y1235D) (Homo sapiens, UniProt P08581, Y1235D); type: binding
# T15 construct: purchased DiscoverX (KINOMEscan)
# LYN = molecular target: T16, LYN (Homo sapiens, UniProt P07948); type: binding
# T16 construct: purchased DiscoverX (KINOMEscan)
# PAK4 = molecular target: T17, PAK4 (Homo sapiens, UniProt O96013); type: binding
# T17 construct: purchased DiscoverX (KINOMEscan)
# FRK = molecular target: T18, FRK (Homo sapiens, UniProt P42685); type: binding
# T18 construct: purchased DiscoverX (KINOMEscan)
# p38-gamma = molecular target: T19, p38-gamma (Homo sapiens, UniProt P53778); type: binding
# T19 construct: purchased DiscoverX (KINOMEscan)
# TNNI3K = molecular target: T20, TNNI3K (Homo sapiens, UniProt Q59H18); type: binding
# T20 construct: purchased DiscoverX (KINOMEscan)
# ULK1 = molecular target: T21, ULK1 (Homo sapiens, UniProt O75385); type: binding
# T21 construct: purchased DiscoverX (KINOMEscan)
# p38-beta = molecular target: T22, p38-beta (Homo sapiens, UniProt Q15759); type: binding
# T22 construct: purchased DiscoverX (KINOMEscan)
# LIMK2 = molecular target: T23, LIMK2 (Homo sapiens, UniProt P53671); type: binding
# T23 construct: purchased DiscoverX (KINOMEscan)
# p38-delta = molecular target: T24, p38-delta (Homo sapiens, UniProt O15264); type: binding
# T24 construct: purchased DiscoverX (KINOMEscan)
# PLK1 = molecular target: T25, PLK1 (Homo sapiens, UniProt P53350); type: binding
# T25 construct: purchased DiscoverX (KINOMEscan)
# SLK = molecular target: T26, SLK (Homo sapiens, UniProt Q9H2G2); type: binding
# T26 construct: purchased DiscoverX (KINOMEscan)
# AKT1 = molecular target: T27, AKT1 (Homo sapiens, UniProt P31749); type: binding
# T27 construct: purchased DiscoverX (KINOMEscan)
# BMPR1A = molecular target: T28, BMPR1A (Homo sapiens, UniProt P36894); type: binding
# T28 construct: purchased DiscoverX (KINOMEscan)
# RET(M918T) = molecular target: T29, RET(M918T) (Homo sapiens, UniProt P07949, M918T); type: binding
# T29 construct: purchased DiscoverX (KINOMEscan)
# T29 sequence (P07949 29-1114 M918T): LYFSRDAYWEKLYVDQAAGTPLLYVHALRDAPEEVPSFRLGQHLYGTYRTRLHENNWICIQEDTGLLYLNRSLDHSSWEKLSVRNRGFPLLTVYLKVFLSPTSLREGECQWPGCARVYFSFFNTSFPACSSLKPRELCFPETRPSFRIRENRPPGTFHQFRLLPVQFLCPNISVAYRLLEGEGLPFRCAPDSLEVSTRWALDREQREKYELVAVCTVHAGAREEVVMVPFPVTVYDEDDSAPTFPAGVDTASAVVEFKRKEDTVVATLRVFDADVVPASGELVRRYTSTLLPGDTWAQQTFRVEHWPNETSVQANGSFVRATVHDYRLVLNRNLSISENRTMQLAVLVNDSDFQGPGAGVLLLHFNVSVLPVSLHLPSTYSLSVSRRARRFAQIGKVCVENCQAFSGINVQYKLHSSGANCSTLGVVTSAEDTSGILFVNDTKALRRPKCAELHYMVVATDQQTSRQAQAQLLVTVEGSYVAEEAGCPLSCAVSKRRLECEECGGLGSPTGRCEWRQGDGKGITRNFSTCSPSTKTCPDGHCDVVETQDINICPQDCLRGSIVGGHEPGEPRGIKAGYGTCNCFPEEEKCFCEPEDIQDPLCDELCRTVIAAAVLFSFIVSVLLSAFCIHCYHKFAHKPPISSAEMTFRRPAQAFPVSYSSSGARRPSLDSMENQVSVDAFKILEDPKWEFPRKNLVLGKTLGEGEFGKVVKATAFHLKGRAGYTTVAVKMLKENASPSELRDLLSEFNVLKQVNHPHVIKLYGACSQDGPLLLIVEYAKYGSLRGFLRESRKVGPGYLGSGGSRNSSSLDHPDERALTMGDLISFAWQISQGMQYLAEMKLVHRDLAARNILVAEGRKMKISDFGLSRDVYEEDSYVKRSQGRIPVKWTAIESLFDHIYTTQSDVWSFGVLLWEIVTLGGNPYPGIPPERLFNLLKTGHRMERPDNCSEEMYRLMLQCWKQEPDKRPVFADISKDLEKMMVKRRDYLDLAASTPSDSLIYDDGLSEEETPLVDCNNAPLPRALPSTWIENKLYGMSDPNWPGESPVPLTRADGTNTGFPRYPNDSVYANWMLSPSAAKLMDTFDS
# GSK3B = molecular target: T30, GSK3B (Homo sapiens, UniProt P49841); type: binding
# T30 construct: purchased DiscoverX (KINOMEscan)
# PFTAIRE2 = molecular target: T31, PFTAIRE2 (Homo sapiens, UniProt Q96Q40); type: binding
# T31 construct: purchased DiscoverX (KINOMEscan)
# EGFR(L747-T751delSins) = type: binding, human
# IKK-alpha = molecular target: T32, IKK-alpha (Homo sapiens, UniProt O15111); type: binding
# T32 construct: purchased DiscoverX (KINOMEscan)
# FLT3(R834Q) = molecular target: T33, FLT3(R834Q) (Homo sapiens, UniProt P36888, R834Q); type: binding
# T33 construct: purchased DiscoverX (KINOMEscan)
# MLK2 = molecular target: T34, MLK2 (Homo sapiens, UniProt Q02779); type: binding
# T34 construct: purchased DiscoverX (KINOMEscan)
# [3] = molecular target: T35, ABL1(F317I)-phosphorylated (Homo sapiens, UniProt P00519, F317I); type: binding
# T35 construct: purchased DiscoverX (KINOMEscan)
# CSNK1E = molecular target: T36, CSNK1E (Homo sapiens, UniProt P49674); type: binding
# T36 construct: purchased DiscoverX (KINOMEscan)
# [4] = molecular target: T37, JAK3(JH1domain-catalytic) (Homo sapiens, UniProt P52333); type: binding
# T37 construct: JAK3(JH1domain-catalytic); purchased DiscoverX (KINOMEscan)
# CASK = molecular target: T38, CASK (Homo sapiens, UniProt O14936); type: binding
# T38 construct: purchased DiscoverX (KINOMEscan)
# CAMK1D = molecular target: T39, CAMK1D (Homo sapiens, UniProt Q8IU85); type: binding
# T39 construct: purchased DiscoverX (KINOMEscan)
# T39 sequence (Q8IU85 whole entry): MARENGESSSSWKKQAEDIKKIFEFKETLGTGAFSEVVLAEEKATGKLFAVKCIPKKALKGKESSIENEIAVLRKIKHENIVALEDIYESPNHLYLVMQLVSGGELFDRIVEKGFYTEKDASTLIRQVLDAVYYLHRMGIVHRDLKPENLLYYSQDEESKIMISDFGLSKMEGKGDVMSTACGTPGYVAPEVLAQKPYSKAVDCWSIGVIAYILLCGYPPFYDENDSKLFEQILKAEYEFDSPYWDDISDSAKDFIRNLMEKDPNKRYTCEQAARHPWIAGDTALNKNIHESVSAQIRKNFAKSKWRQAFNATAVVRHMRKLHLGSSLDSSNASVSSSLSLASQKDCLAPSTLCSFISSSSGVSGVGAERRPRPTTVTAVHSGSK
# ITK = molecular target: T40, ITK (Homo sapiens, UniProt Q08881); type: binding
# T40 construct: purchased DiscoverX (KINOMEscan)
# ERN1 = molecular target: T41, ERN1 (Homo sapiens, UniProt O75460); type: binding
# T41 construct: purchased DiscoverX (KINOMEscan)
compound,measurement,setting,value
"Nc1ccc(N=Nc2ccccc2)c(N)n1 [phenazopyridine, 2,6-diamino-3-(phenylazo)pyridine]",kinase inhibition,GSK3A,100
same,remaining binding (% of control),RIPK1,100
same,kinase inhibition,CDKL2,85
same,kinase inhibition,MELK,79
same,kinase inhibition,[1],90
same,kinase inhibition,CAMKK1,100
same,kinase inhibition,YES,100
same,kinase inhibition,FLT4,100
same,kinase inhibition,PIK3CA(I800L),88
same,kinase inhibition,EGFR(L858R),100
same,kinase inhibition,[2],64
same,kinase inhibition,LRRK2(G2019S),91
same,kinase inhibition,BIKE,99
same,kinase inhibition,TGFBR2,66
same,kinase inhibition,MET(Y1235D),100
same,kinase inhibition,LYN,82
same,kinase inhibition,PAK4,100
same,remaining binding (% of control),FRK,100
same,kinase inhibition,p38-gamma,100
same,kinase inhibition,TNNI3K,100
same,kinase inhibition,ULK1,100
same,kinase inhibition,p38-beta,83
same,kinase inhibition,LIMK2,96
same,kinase inhibition,p38-delta,89
same,remaining binding (% of control),PLK1,79
same,kinase inhibition,SLK,100
same,kinase inhibition,AKT1,99
same,kinase inhibition,BMPR1A,98
same,kinase inhibition,RET(M918T),100
same,kinase inhibition,GSK3B,100
same,kinase inhibition,PFTAIRE2,96
same,kinase inhibition,EGFR(L747-T751delSins),80
same,kinase inhibition,IKK-alpha,64
same,remaining binding (% of control),FLT3(R834Q),89
same,kinase inhibition,MLK2,100
same,kinase inhibition,[3],78
same,kinase inhibition,CSNK1E,44
same,kinase inhibition,[4],100
same,kinase inhibition,CASK,99
same,kinase inhibition,CAMK1D,100
same,kinase inhibition,ITK,97
same,kinase inhibition,ERN1,82

# Reference: PMC8371461 (Frontiers in Pharmacology, 2021)
